Reference: US20200039939A1, “QUINOLINE AMINES USEFUL AS CYTOPROTECTIVE AGENTS” (priority 2015, published 2020)
pEC50: −log10 of the molar value.

What was measured:
Ob/ob mice = experiment: Effect of a SERCA agonist on the level of blood glucose; type: in vivo; conditions: Mus musculus, ip, 96 h, 50 mg/kg i.p. once a day for 5 days, fasting glucose at baseline and 4 days after administration, read-out: Glucose level reduction
Procedure: Ob/ob mice (10 weeks old, n=7) were intraperitoneally (i.p.) injected with 100 μL of a solution containing 0 (vehicle) or 50 mg/kg of a test compound once a day for a total of 5 days. Fasting glucose was measured at baseline and 4 days after the administration of the test compound. Glucose levels were measured in blood samples drawn from the tail vein using a handheld glucose sensor. Compound effects on blood glucose are shown in Table 5 where A represents a 10-20% reduction in blood glucose, B represents a 21-30% reduction in blood glucose, and C represents a greater than 30% reduction in blood glucose levels.

SERCA = biological target: T1, SERCA (Homo sapiens, UniProt P16615); experiment: Ca-ATPase assay (NADH-linked, enzyme-coupled ATPase assay); type: biochemical; conditions: microsomal preparations from HEK 293 cells, Vmax from Hill fit of ATPase calcium-dependence, relative to controls
T1 construct: microsomal preparations from HEK 293 cells; endogenous in cells; host or cells: HEK 293 cells (microsomal preparation)
Procedure: A Ca-ATPase assay was performed using microsomal preparations from HEK 293 cells at a series of calcium concentrations corresponding to the physiological range, relative to controls. The ATP hydrolysis rate was measured over a range of calcium concentrations in the presence of test compounds using an NADH-linked, enzyme-coupled ATPase assay adapted for 96-well microplates, with Vmax determined by fitting the ATPase calcium-dependence to the Hill function. Each well contained 2 μg or 7 μg of SR vesicles (optimized for skeletal or cardiac SR, respectively), 50 mM MOPS (pH 7.0), 100 mM KCl, 5 mM MgCl2, 1 mM EGTA, 0.2 mM NADH, 1 mM phosphoenol pyruvate, 5 IU pyruvate kinase, 5 IU lactate dehydrogenase, and 3.5 μg/mL A23187 (a calcium ionophore). CaCl2 was added to set free [Ca^2+] to the specific values. The assay was started upon addition of ATP at a final concentration of 5 mM, and read in a SpectraMax Plus microplate spectrophotometer. The results are summarized in Table 4, where A represents an increase in SERCA Vmax greater than or equal to 50% and B represents a value greater than 10% and less than 50%.

[1] = tested on: Human embryonic kidney (HEK293) cells / mouse neuroblastoma (N2a) cells; experiment: Cell rescue assay: protection against thapsigargin (TG)-induced cell-death (ALAMARBLUE); type: cell-based; conditions: compound 20 μM, 2 hrs before thapsigargin (15 μM HEK293, 1 μM N2a), 24 hrs, viability as % RFU of control, read-out: Cell Survival %
Procedure: Protection against Thapsigargin (TG)-induced Cell-death. Human embryonic kidney (HEK293) cells were grown in Dulbecco's Modified Eagle's Medium (DMEM) with 10% FBS and 1% antibiotic antimycotic solution (ABAM). Mouse neuroblastoma (N2a) cells were grown in 1:1 DMEM:OPTI-MEM® with 5% FBS and 1% ABAM. All cells were grown in 10% CO2 in a humidified environment of the incubator. Cells grown in 96-well plates were exposed to a test compound (20 μM) for 2 hrs before addition of thapsigargin (15 μM for HEK293 cells and 1 μM for N2a cells) to induce ER stress. After incubation in cell-culture incubator for 24 hrs, ALAMARBLUE® regent (10% v/v) was added to the wells. Fluorescence reading was taken 2 hrs after the addition of the ALAMARBLUE® regent. Cell-viability was calculated as a percentage of relative fluorescence unit (RFU) compared to control. […] The biological results are summarized in Table 2, where each compound was tested at 20 μM and where A represents a viability greater than 50%, B represents a viability greater than 10% and less than 50%, C represents a value below 10%.

CSM14.1 neuronal cells = experiment: Cell survival assay (thapsigargin-treated CSM14.1 neuronal cells, CELLTITER-GLO); type: cell-based; conditions: 2 hrs compound pre-incubation, about 15 μM thapsigargin, overnight, luminescence
Procedure: CSM14.1 neuronal cells were maintained in Complete Medium at 32° C.; wherein the Complete Medium contained Dulbecco's modified eagle medium (DMEM) with 10% fetal bovine serum (FSB), 1% L-glutamine, 100 IU/mL penicillin, and 100 μg/mL streptomycin. The cells were recovered from cultures by trypsinization and then seeded in 384 well plates (Greiner #781098) at a concentration of 1,000 cells/well in 20 μL of DMEM Assay Medium, wherein the DMEM Assay Medium contained 2% FBS, 100 IU/mL penicillin, and 100 μg/mL streptomycin. Seeding was performed using a MultiDrop Combi reagent broadcaster. The plates were incubated overnight at 32° C. A test compound was prepared by 2-fold serial dilution in 100% DMSO using a BIOMEK® 2000 liquid handler (Beckman Coulter). A dose-response curve containing 10 concentrations of the test compound was obtained. Using a BIOMEK® FX liquid handler (Beckman Coulter), 2.5 μL of the test compound was transferred from the 100% DMSO serial dilution plate to an intermediate plate containing 47.5 μL of DMEM Assay Medium containing 2% FBS, 100 IU/mL penicillin, and 100 μg/mL streptomycin and mixed. To reduce or eliminate the interference from the compound's precipitation, 6 μL of the diluted compound was immediately transferred to the assay plate to achieve a high compound concentration of 100 µM in 99% DMEM Assay Medium and 1% DMSO. After the assay plates were incubated for 2 hrs, 4 μL of 112.5 μM thapsigargin (TG) (DMSO stock diluted into Assay TC Medium) was dispensed into each testing well with a MultiDrop Combi reagent broadcaster for a final concentration of about 15 μM TG. The tissue culture media (4 μL) containing vehicle only was transferred manually to each control cell using a 16 channel electronic pipette. After the plates were incubated overnight (about 16 to 24 hrs), CELLTITER-GLO® (Promega) (16 μL) was added to all wells and luminescence was measured. High luminescence indicates cell survival. The biological results are summarized in Table 1 where A represents a cell viability EC50 less than 10 μM and B represents a value greater than 10 μM and less than 20 μM.

Human SH-SY5Y cells = experiment: Cell rescue assay: protection against amyloid (AB1-42)-induced cell toxicity; type: cell-based; conditions: 96 h, 7.5 uM compound (final), AB1-42 at 10 uM, 4 days, OD 490 nm, read-out: Cell Survival % (cell rescue)
Procedure: Protection against 1-amyloid-induced cell toxicity. Chonpathompikunlert et al. Eu. J. Pharmacol. 2011, 650, 544-549. Human SH-SY5Y cells are suspended in media containing 2% FBS and 2× Gentamicin. Transfer 100 ul/well culture to 96-well plate (20,000 cells/well; passage #5) and incubate overnight. Prepare compound samples at 30 uM. Add 50 ul of the samples to the cells [[…]] and incubate 3 hours. Make stock of 40 uM AB1-42 peptide in assay media. Transfer 50 ul/well to cells/compounds in assay plate. The final assay volume is 200 ul/well, containing 2% FBS, 2× Gentamicin, 7.5 uM compound and AB1-42 at 10 uM. Incubate for 4 days then add 20 ul of Promega Substrate Cell Titer 96 Aqueous One Solution Reagent to each well. Incubate 37° C. and read OD at 490 nm. The results are summarized in Table 3, where A represents a value greater than 40% cell rescue, B represents a value greater than 10% and less than or equal to 40% cell rescue, and C represents a value greater than 1% and less than or equal to 10% cell rescue.

T1 sequence (P16615 whole entry): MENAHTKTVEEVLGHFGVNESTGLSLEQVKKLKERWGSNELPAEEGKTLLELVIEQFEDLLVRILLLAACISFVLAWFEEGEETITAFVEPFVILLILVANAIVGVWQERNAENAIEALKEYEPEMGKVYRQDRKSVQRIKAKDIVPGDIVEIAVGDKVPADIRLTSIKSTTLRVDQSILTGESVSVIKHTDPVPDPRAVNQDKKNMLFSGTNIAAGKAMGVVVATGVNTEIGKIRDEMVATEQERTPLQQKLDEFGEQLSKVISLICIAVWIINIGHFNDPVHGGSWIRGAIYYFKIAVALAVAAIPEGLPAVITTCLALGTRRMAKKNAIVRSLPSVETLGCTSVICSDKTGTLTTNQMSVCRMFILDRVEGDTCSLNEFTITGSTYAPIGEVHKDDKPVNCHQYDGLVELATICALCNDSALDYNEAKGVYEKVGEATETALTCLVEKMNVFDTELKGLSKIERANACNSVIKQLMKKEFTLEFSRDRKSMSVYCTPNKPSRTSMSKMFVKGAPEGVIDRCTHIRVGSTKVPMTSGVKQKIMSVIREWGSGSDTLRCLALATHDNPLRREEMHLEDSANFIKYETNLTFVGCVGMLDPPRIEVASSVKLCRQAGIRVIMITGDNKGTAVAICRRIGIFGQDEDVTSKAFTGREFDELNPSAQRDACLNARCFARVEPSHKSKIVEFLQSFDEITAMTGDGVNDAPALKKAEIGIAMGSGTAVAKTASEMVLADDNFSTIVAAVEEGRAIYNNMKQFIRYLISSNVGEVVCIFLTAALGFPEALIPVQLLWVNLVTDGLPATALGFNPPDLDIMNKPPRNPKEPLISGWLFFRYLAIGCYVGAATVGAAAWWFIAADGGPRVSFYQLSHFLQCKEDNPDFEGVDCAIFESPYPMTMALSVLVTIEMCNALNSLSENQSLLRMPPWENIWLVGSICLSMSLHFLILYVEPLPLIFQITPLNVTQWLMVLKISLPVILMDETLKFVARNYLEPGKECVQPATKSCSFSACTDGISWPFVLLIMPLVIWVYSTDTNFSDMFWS

Row | SMILES | inhibition in vivo at 50 mg/kg (Ob/ob mice) | SERCA Vmax Increase (SERCA) | viability at 20 µM [1] | pEC50 (CSM14.1 neuronal cells) | viability at 7.5 µM (Human SH-SY5Y cells)
1 | Cc1ccc2cccc(NCc3ccc(Cl)cc3)c2n1 [C4, N-(4-Chlorobenzyl)-2-methylquinolin-8-amine] | 10 to 20% | A (A represents an increase in SERCA Vmax greater than or equal to 50%) | > 50% | > 5.00 | > 40%
2 | Cc1ccc2cccc(NCc3ccc(C(F)(F)F)cc3)c2n1 [C6, N-(4-Trifluoromethylbenzyl)-2-methylquinolin-8-amine] | 10 to 20% | B (B represents a value greater than 10% and less than 50%) | > 50% | > 5.00 | > 40%
3 | Cc1ccc2cccc(NCc3ccc(C#N)cc3)c2n1 [C7, N-(4-Cyanobenzyl)-2-methylquinolin-8-amine] | 10 to 20% | B (B represents a value greater than 10% and less than 50%) | < 10% | 4.70 to 5.00 | 10 to 40%
4 | Cc1ccc2cccc(NCc3cc4ccccc4s3)c2n1 [C10, N-(Benzo[b]thiophen-2-ylmethyl)-2-methylquinolin-8-amine] | 21 to 30% | B (B represents a value greater than 10% and less than 50%) | 10 to 50% | 4.70 to 5.00 | 10 to 40%
5 | COc1c(C)cccc1CNc1cccc2ccc(C)nc12 [C5, N-(2-Methoxy-3-methyl)-2-methylquinolin-8-amine] | 21 to 30% | A (A represents an increase in SERCA Vmax greater than or equal to 50%) | 10 to 50% | 4.70 to 5.00 | 1 to 10%
6 | Cc1ccc2cccc(NCc3cc(Br)cs3)c2n1 [C2, N-((4-Bromothiophen-2-yl)methyl)-2-methylquinolin-8-amine] | 21 to 30% | B (B represents a value greater than 10% and less than 50%) | 10 to 50% | > 5.00 | 10 to 40%
7 | Cc1ccc2cccc(NCc3ccc(OC(C)C)cc3)c2n1 [C1, N-(4-Isopropoxybenzyl)-2-methylquinolin-8-amine] | > 30% | B (B represents a value greater than 10% and less than 50%) | > 50% | > 5.00 | > 40%
8 | Cc1ccc2cccc(NCc3ccc(Br)s3)c2n1 [C3, N-((5-Bromothiophen-2-yl)methyl)-2-methylquinolin-8-amine] | 21 to 30% | B (B represents a value greater than 10% and less than 50%) | > 50% | > 5.00 | > 40%
9 | Cc1ccc2cccc(NCc3ccc(C)o3)c2n1 [C9, N-((5-Methylfuran-2-yl)methyl)-2-methylquinolin-8-amine] | 21 to 30% | B (B represents a value greater than 10% and less than 50%) | < 10% | 4.70 to 5.00 | 1 to 10%
10 | Cc1ccc2cccc(NCc3ccc(C)s3)c2n1 [C8, N-((5-Methylthiophen-2-yl)methyl)-2-methylquinolin-8-amine] | > 30% | B (B represents a value greater than 10% and less than 50%) | 10 to 50% | > 5.00 | > 40%
